In patent US12448399B2, “Cereblon-based KRAS degrading PROTACs and uses related thereto” (Arvinas Operations, Inc., priority 2023, dated 2025):

Biological target: T1, KRas-G12D (Homo sapiens, UniProt P01116, G12D)
T1 construct: insert the HiBiT tag onto the N-terminus of one or more of the endogenous KRas alleles; host or cells: AsPC-1 HiBiT-KRasG12D knock-in clone (one tagged allele, two untagged KRasG12D alleles)
Assay: HiBiT Degradation Assay (G12D), AsPC-1 HiBiT-KRasG12D cells, 24 hr
Assay type: cell-based
Conditions: for Dmax: ASPC1, AsPC-1 cells, maximum degradation observed; for DC50: AsPC-1 cells
In short: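 Degradation was read after 24 hr compound exposure (0.5% DMSO, 37° C) by Nano-Glo HiBiT lytic luminescence in AsPC-1 cells carrying a HiBiT tag on one of three KRasG12D alleles. Signal relative to DMSO gave DC50 and Dmax by 4-parameter fit; alamar blue fluorescence monitored cytotoxicity.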

T1 sequence (P01116 1-188 isoform P01116-2 G12D): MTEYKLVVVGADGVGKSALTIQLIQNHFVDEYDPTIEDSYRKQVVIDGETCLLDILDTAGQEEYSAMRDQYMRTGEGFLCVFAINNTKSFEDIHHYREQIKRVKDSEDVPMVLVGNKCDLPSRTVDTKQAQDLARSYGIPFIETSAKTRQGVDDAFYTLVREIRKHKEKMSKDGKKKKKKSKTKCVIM

SMILES	Dmax	DC50
CCc1cccc2cc(O)cc(-c3ncc4c(N5CC6CCC(C5)N6)nc(OCCN5CCC(CC6CCN(c7cccc8c7C(=O)N(C7CCC(=O)NC7=O)C8=O)CC6)CC5)nc4c3F)c12 (centres unmarked) [Compound 66, 4-[4-[[1-[2-[4-(3,8-diazabicyclo[3.2.1]octan-3-yl)-7-(8-ethyl-3-hydroxy-1-naphthyl)-8-fluoro-pyrido[4,3-d]pyrimidin-2-yl]oxyethyl]-4-piperidyl]methyl]-1-piperidyl]-2-(2,6-dioxo-3-piperidyl)isoindoline-1,3-dione]	≤ 25%	0.25 to 1 µM
CCc1cccc2cc(O)cc(-c3ncc4c(N5CC6CCC(C5)N6)nc(OCCN5CCC(CC6CCN(c7ccc8c(c7)C(=O)N(C7CCC(=O)NC7=O)C8=O)CC6)CC5)nc4c3F)c12 (centres unmarked) [Compound 67, 5-[4-[[1-[2-[4-(3,8-diazabicyclo[3.2.1]octan-3-yl)-7-(8-ethyl-3-hydroxy-1-naphthyl)-8-fluoro-pyrido[4,3-d]pyrimidin-2-yl]oxyethyl]-4-piperidyl]methyl]-1-piperidyl]-2-(2,6-dioxo-3-piperidyl)isoindoline-1,3-dione]		> 1 µM
C#Cc1c(F)ccc2cc(O)cc(-c3ncc4c(C5CC6CCC(C5)N6)nc(OCCN5CCC(CC6CCN(CC7CCN(c8ccc9c(c8)CN(C8CCC(=O)NC8=O)C9=O)CC7)CC6)CC5)nc4c3F)c12 (centres unmarked) [Compound 68]	> 70%	< 5.1 µM
C#Cc1c(F)ccc2cc(O)cc(-c3ncc4c(C5CC6CCC(C5)N6)nc(OCCN5CCC6(CC5)CCN(CC5CCN(c7ccc8c(c7)CN(C7CCC(=O)NC7=O)C8=O)CC5)CC6)nc4c3F)c12 (centres unmarked) [Compound 70]	> 70%	< 5.1 µM
CCc1cccc2cc(O)cc(-c3ncc4c(C5CC6CCC(C5)N6)nc(OC[C@@H]5C[C@@H](OC6CCN(CC7CCN(c8ccc9c(c8)CN(C8CCC(=O)NC8=O)C9=O)CC7)CC6)CN5C)nc4c3F)c12 (some centres unmarked) [Compound 71]	> 70%	< 5.1 µM
C#Cc1c(F)ccc2cc(O)cc(-c3ncc4c(C5CC6CCC(C5)N6)nc(OCCN5CCC(CN6CC7(CCN(c8ccc9c(c8)CN(C8CCC(=O)NC8=O)C9=O)CC7)C6)CC5)nc4c3F)c12 (centres unmarked) [Compound 72]	> 70%	< 5.1 µM
C#Cc1c(F)ccc2cc(O)cc(-c3ncc4c(C5CC6CCC(C5)N6)nc(OCCN5CCC(CC6CCN(CC7CCN(c8ccc9c(c8)C(=O)N(C8CCC(=O)NC8=O)C9=O)CC7)CC6)CC5)nc4c3F)c12 (centres unmarked) [Compound 74]	> 70%	< 5.1 µM
C#Cc1c(F)ccc2cc(O)cc(-c3ncc4c(N5CC6CCC(C5)N6)nc(OCCN5CCC(CC6CCN(CC7CCN(c8cccc9c8C(=O)N(C8CCC(=O)NC8=O)C9=O)CC7)CC6)CC5)nc4c3F)c12 (centres unmarked) [Compound 75]		< 5.1 µM
C#Cc1c(F)ccc2cc(O)cc(-c3ncc4c(N5CC6CCC(C5)N6)nc(OCCN5CCC6(CC5)CCN(CC5CCN(c7ccc8c(c7)C(=O)N(C7CCC(=O)NC7=O)C8=O)CC5)CC6)nc4c3F)c12 (centres unmarked) [Compound 76]	> 70%	< 5.1 µM
CCc1cccc2cc(O)cc(-c3ncc4c(N5CC6CCC(C5)N6)nc(OC[C@@H]5C[C@@H](OC6CCN(c7ccc8c(c7)CN(C7CCC(=O)NC7=O)C8=O)CC6)CN5C)nc4c3F)c12 (some centres unmarked) [Compound 77]	> 70%	< 5.1 µM
C#Cc1c(F)ccc2cc(O)cc(-c3ncc4c(N5CC6CCC(C5)N6)nc(OCCN5CCC(C(F)(F)C6CCN(CC7CCN(c8ccc9c(c8F)CN(C8CCC(=O)NC8=O)C9=O)CC7)CC6)CC5)nc4c3F)c12 (centres unmarked) [Compound 79, 3-{5-[4-({4-[(1-{2-[(4-{3,8-diazabicyclo[3.2.1]octan-3-yl}-7-(8-ethynyl-7-fluoro-3-hydroxynaphthalen-1-yl)-8-fluoropyrido[4,3-d]pyrimidin-2-yl)oxy]ethyl}piperidin-4-yl)difluoromethyl]piperidin-1-yl}methyl)piperidin-1-yl]-4-fluoro-1-oxo-2,3-dihydro-1H-isoindol-2-yl}piperidine-2,6-dione]	> 70%	< 5.1 µM
